The results in this text go back to PMC8348200, “Selective Antifungal Activity and Fungal Biofilm Inhibition of Tryptophan Center Symmetrical Short Peptide” (International Journal of Molecular Sciences, 2021).

Series [1] relates to S. aureus 29213. In words: microbe, parasite or virus in culture. The class given is cell-based, Staphylococcus aureus. Conditions: 29213, 24 h; read-out: MICs, S. aureus 29213. As to the method: (§1) The peptide antimicrobial activity was determined according to the Clinical and Laboratory Standards Institute method, with modifications. Bacteria concentration was measured by ultraviolet spectrophotometer, and fungi concentration was confirmed by McMillan’s turbidimetric method, which compared the fungi solution with the standard McFarland tube in front of the horizontal line on the paper with the naked eye. Because the light has different refract in different liquids. The standard solution is composed of sulfuric acid and barium chloride, which is equivalent to 1*10^8 CFU fungi. After cultivation, the growth of fungi and bacteria was measured by TECAN automatic enzyme label instrument. Briefly, bacterial cells were cultured in MHB until logarithmic phase, yeast colonies cultured in Yeast Peptone Dextrose Agar (YPDA) were picked and diluted in RPMI 1640 growth medium buffered with morpholine propane sulfonic acid (MOPS), and then 50 μL of bacterial or fungi cell solution (0.5–1 × 10^4 CFU/mL) was added to each well of sterile 96-well plates. Each well contained 50 μL of AMPs dissolved in BSA; the final concentrations of the peptides ranged from 0.5 to 128 μM. The lowest concentration of peptide with no microbial growth being observed were measured after incubation at 37 °C for 24 h for bacteria or at 28 °C for 48 h for fungi. Broth with microbial cells and un-inoculated broth were used as positive control and negative controls, respectively.

The test system of series [2] is S. aureus 25923. In words: microbe, parasite or virus in culture. In kind it is cell-based, Staphylococcus aureus. Conditions: 25923, 24 h; read-out: MICs, S. aureus 25923. As to the method:
as §1

For series [3], the system named is Fluconazole-resistant C. albicans 56214. Briefly: microbe, parasite or virus in culture. Conditions: fluconazole-resistant strain; RPMI 1640 buffered with MOPS, 28 °C 48 h, 0.5-128 μM. Here is the method:
as §1, with “Bacteria concentration was measured by ultraviolet spectrophotometer, and fungi concentration was confirmed by McMillan’s turbidimetric method, which compared the fungi solution with the standard McFarland tube in front of the horizontal line on the paper with the naked eye.” left out, “The lowest concentration of peptide with no microbial growth being observed were measured after incubation at 37 °C for 24 h for bacteria or at 28 °C for 48 h for fungi.” left out

For series [4], the system named is L. plantarum 7469. Briefly: microbe, parasite or virus in culture. The class given is cell-based. Particulars: 24 h; read-out: MICs, L. plantarum 7469. Here is the method:
as §1

Series [5] has as its system C. parapsilosis cgmcc 2.3989. In words: microbe, parasite or virus in culture. The class given is cell-based. Particulars: cgmcc 2.3989, 48 h; read-out: MICs, C. parapsilosis cgmcc 2.3989. As to the method: as §1
Series [6] deals with C. tropicalis cgmcc 2.1975. Briefly: microbe, parasite or virus in culture. In kind it is cell-based. Particulars: cgmcc 2.1975, 48 h; read-out: MICs, C. tropicalis cgmcc 2.1975. As to the method:
as §1

Series [7] has as its system C. albicans Isolated from Alveolar Fluid. Briefly: microbe, parasite or virus in culture. The class given is cell-based, Candida albicans. Particulars: RPMI 1640 buffered with MOPS, 28 °C 48 h, 0.5-128 μM; read-out: MICs, C. albicans Isolated from Alveolar Fluid. As to the method: as §1
Series [8] concerns C. albicans cgmcc 2.2086. Briefly: microbe, parasite or virus in culture. In kind it is cell-based, Candida albicans. Particulars: cgmcc 2.2086, 48 h; read-out: MICs, C. albicans cgmcc 2.2086. Here is the method: as §1
The test system of series [9] is C. albicans SP3903. Briefly: microbe, parasite or virus in culture. The class given is cell-based, Candida albicans. Conditions: clinical isolate; RPMI 1640 buffered with MOPS, 28 °C 48 h, 0.5-128 μM; read-out: MICs, C. albicans SP3903. Here is the method:
as §1

For series [10], the system named is C. albicans SP3937. Briefly: microbe, parasite or virus in culture. The class given is cell-based, Candida albicans. Conditions: clinical isolate; RPMI 1640 buffered with MOPS, 28 °C 48 h, 0.5-128 μM; read-out: MICs, C. albicans SP3937. Here is the method:
as §1

Series [11] concerns C. albicans SP3902. Briefly: microbe, parasite or virus in culture. The class given is cell-based, Candida albicans. Conditions: clinical isolate; RPMI 1640 buffered with MOPS, 28 °C 48 h, 0.5-128 μM; read-out: MICs, C. albicans SP3902. Here is the method:
as §1

In series [12] the test system is L. rhamnosus 1.0385. Briefly: microbe, parasite or virus in culture. In kind it is cell-based, Lactobacillus rhamnosus. Particulars: 24 h; read-out: MICs, L. rhamnosus 1.0385. As to the method:
as §1

Series [13] deals with L. rhamnosus 1.0911. Briefly: microbe, parasite or virus in culture. Particulars: 24 h; read-out: MICs, L. rhamnosus 1.0911. In kind it is cell-based, Lactobacillus rhamnosus. As to the method:
as §1

Series [14] relates to E. coli UB1005. Briefly: microbe, parasite or virus in culture. The class given is cell-based, Escherichia coli. Particulars: UB1005, 24 h; read-out: MICs, E. coli UB1005. Here is the method: as §1
Series [15] relates to E. coli 25922. In words: microbe, parasite or virus in culture. In kind it is cell-based, Escherichia coli. Particulars: 25922, 24 h; read-out: MICs, E. coli 25922. As to the method:
as §1

In series [16] the test system is S. thermophilus YM-C. In words: microbe, parasite or virus in culture. The class given is cell-based, Streptococcus thermophiles. Conditions: 24 h; read-out: MICs, S. thermophilus YM-C. Here is the method: as §1
The subject of series [17] is C.albicans cgmcc 2.2086. Briefly: microbe, parasite or virus in culture. In kind it is cell-based, Candida albicans. Conditions: cgmcc 2.2086, 24 h. As to the method: as §1, with “The lowest concentration of peptide with no microbial growth being observed were measured after incubation at 37 °C for 24 h for bacteria or at 28 °C for 48 h for fungi.” left out
The salt and acid sensitivities of the peptides were measured using with modified method to test MIC values; tested peptides were incubated in the presence of different final concentrations of physiological salts. The subsequent steps were consistent with the MIC determination protocol.

For series [18], the system named is human red blood cells. In words: Hemolysis assay. The class given is cell-based. Particulars: at the highest tested concentration; fresh human erythrocytes. Here is the method: The cytotoxicity of the peptides was determined with three cell types, including the Pig kidney cells, HEK 293T cells and fresh, healthy human red blood cells (donated by Zhihua Wang) via the MTT dye reduction assay and hemolysis assay.

Converted amounts (≈) assume the structure as drawn. Where two headings read alike, the source gives them in different places. Residues, ends and D or L forms follow the SMILES beside them. No end group written: not given here.

In the case of `CC(C)C[C@H](NC(=O)[C@H](CS)NC(=O)[C@H](CC(C)C)NC(=O)[C@H](Cc1c[nH]c2ccccc12)NC(=O)[C@H](CC(C)C)NC(=O)[C@H](CS)NC(=O)[C@H](CC(C)C)NC(=O)[C@H](CCCNC(=N)N)NC(=O)[C@@H](N)CCCNC(=N)N)C(=O)N[C@@H](CCCNC(=N)N)C(=O)N[C@@H](CCCNC(=N)N)C(N)=O` [Peptide P3] (H-RRLCLWLCLRR-NH2; N-terminus assumed), the MIC was 8 µM (≈ 11.9 µg/mL) in series [1]; 8 µM (≈ 11.9 µg/mL) in series [2]; 128 µM (≈ 190 µg/mL) in series [4]; 16 µM (≈ 23.8 µg/mL) in [5]; 4 µM (≈ 5.95 µg/mL) in series [6]; 16 µM (≈ 23.8 µg/mL) in series [7]. The MIC in series [8] was 8 µM (≈ 11.9 µg/mL); in series [9] it was 16 µM (≈ 23.8 µg/mL); in [10], 16 µM (≈ 23.8 µg/mL); in series [11], 16 µM (≈ 23.8 µg/mL); in series [12] it was >128 µM; in series [13] it was 128 µM (≈ 190 µg/mL). Also, the results for the MIC in series [14], in series [15] and in series [16] were 2 µM (≈ 2.97 µg/mL), 4 µM (≈ 5.95 µg/mL) and >128 µM, respectively. The “MICs, C. albicans 56214” value in series [3] came out at 16 µM.

For the compound RRFSFWFSFRR-NH2 [Peptide P19], the MIC in [1] was 128 µM; in series [2], >128 µM; in series [4], >128 µM; in [5] it was 2 µM; in series [6], 2 µM; in series [7], 4 µM. In addition, the MIC in [8] was 2 µM; in series [9] it was 2 µM; in [10], 4 µM; in [11], 4 µM; in series [17] (read-out: MIC in acid environment, pH = 6), 4 µM; in [17] (read-out: MIC in the presence of FeCl3), 4 µM. In addition, the MIC came out at 4 µM in series [17] (read-out: MIC in the presence of KCl); 4 µM in series [17] (read-out: MIC in the presence of MgCl2); 4 µM in series [17] (read-out: MIC in the presence of NH4Cl); 32 µM in series [17] (read-out: MIC in the presence of NaCl); 4 µM in [17] (read-out: MIC in the presence of ZnCl2); 2 µM in [17] (read-out: MIC, Control). Further, the MIC is >128 µM in series [12]; >128 µM in series [13]; 128 µM in series [14]; 128 µM in [15]; >128 µM in series [16]. Also, in series [3], the “MICs, C. albicans 56214” value is listed as 4 µM. Moreover, the hemolysis entry in series [18] is “less than 5%”.

For RRISIWISIRR-NH2 [Peptide P17], the MIC in series [1] is recorded as 128 µM; in [2], 128 µM; in series [4] it was >128 µM; in series [5], 1 µM; in series [6], 1 µM; in series [7], 8 µM. The MIC amounted to 4 µM in [8]; 2 µM in series [9]; 4 µM in [10]; 4 µM in series [11]; 8 µM in series [12]; 32 µM in [13]. The results for the MIC in series [14], in series [15] and in [16] were 16 µM, 128 µM and >128 µM, respectively. Besides, the “MICs, C. albicans 56214” value in series [3] was determined as 4 µM.

Regarding RRLALWLALRR-NH2 [Peptide P1], the MIC in series [1] is given as 8 µM; in [2], 8 µM; in [4], >128 µM; in series [5], 8 µM; in series [6] it was 2 µM; in series [7] it was 8 µM. Further, the MIC is 8 µM in series [8]; 16 µM in series [9]; 16 µM in [10]; 32 µM in series [11]; 8 µM in series [12]; 64 µM in [13]. Further, the MIC in series [14] is on record as 2 µM; in series [15] it was 4 µM; in [16] it was 128 µM. Also, in [3], the “MICs, C. albicans 56214” value was determined as 16 µM.

Regarding RRLSLWLSLRR-NH2 [Peptide P2], the MIC was found to be 4 µM in [1]; 16 µM in [2]; 128 µM in [4]; 8 µM in [5]; 2 µM in [6]; 8 µM in [7]. Moreover, the MIC amounted to 4 µM in series [8]; 16 µM in series [9]; 8 µM in series [10]; 16 µM in series [11]; 8 µM in series [12]; 8 µM in [13]. Besides, the MIC in series [14] is reported as 2 µM; in series [15], 4 µM; in series [16] it was >128 µM. The “MICs, C. albicans 56214” value in series [3] was found to be 8 µM.
